Results taken from patent publication US8470878B2, “Heterocyclic sulfonamide derivatives” (Novartis AG, priority 2011, dated 2013).

Key:
[1] = Pharmacokinetics in athymic nude rats; format: in vivo; conditions: rat; for AUC / clearance / half-life / Vd / bioavailability / Cmax: athymic nude, plasma; for bioavailability: p.o. (3 mg/kg) vs i.v. (0.5 mg/kg), oral bioavailability; for PK-parameters compared to Example 1: one-way analysis of variance
Protocol: Pharmacokinetics in Athymic Nude Rats
For pharmacokinetics studies, the following parameters were calculated by non-compartmental regression analysis using Winnonlin 5.0 software (Pharsight, Mountain View, Calif., USA): half life in plasma (t1/2term); plasma clearance (CL); plasma maximum concentration (Cmax); plasma area-under-the-concentration-time-curve (AUC); and percent oral bioavailability (F %).

BRAF-MEK-ERK cascade = molecular target: T1, BRAF-MEK-ERK cascade (Homo sapiens, UniProt Q02750); test: BRAF-MEK-ERK enzymatic cascade assay (TR-FRET); format: biochemical; conditions: mean±SEM, n=3; 10 point dose response, 45 minutes pre-incubation
T1 construct: human full length MEK1 kinase (Cat No. 14-706); purchased Upstate 14-557 (BRAF V599E); 14-706 (MEK1); 14-536 (ERK2)
From the text: A BRAF-MEK-ERK cascade assay is used to evaluate the effects of these compounds as inhibitors of the MAP kinase pathway. An enzymatic cascade assay is set up using recombinant human activated BRAF (V599E) kinase (Cat No. 14-557), human full length MEK1 kinase (Cat No. 14-706) and human full length active MAP Kinase 2/ERK2 (Cat No. 14-536) enzymes procured from Upstate. TR-FRET (Time resolved fluorescence resonance energy transfer) detection technology is used for the read out. […] The kinase reaction is stopped after 90 minutes with 10 mM EDTA and Lance detection mix (2 nM Eu-labeled phospho-serine/threonine antibody (Cat. No. AD0176-Perkin Elmer), 20 nM SA-APC (Cat No. CR130-100-Perkin Elmer) is added. The TR-FRET signal (Excitation at 340 nm, Emission at 615 nm and 665 nm) is read with 50 μs delay time on a Victor3 V fluorimeter. The data is calculated using the ratio of readings at 665 nm to 615 nm. The final concentration of DMSO is 2.5% in the assay. Compounds are screened at 10 μM concentration with pre-incubation of the enzymes in the presence of test compound for 45 minutes.
Each individual IC50 is determined using a 10 point dose response curve generated by GraphPad Prism software Version 4 (San Diego, Calif., USA) using non linear regression curve fit for sigmoidal dose response (variable slope).
These assays described above are fully detailed in Han, Shulin, et. al., Bioorganic & Medicinal Chemistry Letters (2005) 15, 5467-5473, and in Yeh, et. al., Clin Cancer Res (2007) 13 (5), 1576-1583.

[2] = system: DUSP6 expression in A375 tumors; test: A375 B-RafV600E human melanoma model in rat, PK-PD experiment (DUSP6 expression in tumor, real time quantitative PCR); format: in vivo; conditions: A375 tumor bearing rats, single oral dose, at 12 h and 24 h post dosing; two-way analysis of variance, p=0.003 and p=0.006
Protocol: A375 B-RafV600E Human Melanoma Model in Rat—PK-PD Experiment:
A375 cells were thawed using a 37° C. water bath. Cells were transferred to a tube containing 10 mls of warm DMEM medium. The tube was centrifuged for 5 minutes at 1200 rpm and the supernatant was discarded. The cell pellet was re-suspended and transferred to a 75 cm^2 tissue culture flask containing 15 mls of medium and cultured at 37° C. in a 5% CO2 incubator.
On the day of the cells implantation, cells were harvested (about 85% confluent), and re-suspended in cold medium containing 4 mg/ml of matrigel. This cell suspension was injected, subcutaneously, to athymic-nude pre-irradiated (500 rads) rats. Ten million cells (injection volume, 200 μL) were injected, subcutaneously, into the right flank region of the rats 24 hours after irradiation. Tumor bearing rats were randomized when the tumor volume reached approximately 500 mm^3 after about 15 to 20 days. Three rats were used for each time point.
Rats were treated orally with a single dose of 10, 30 and 60 mg/kg p.o. of Example 1A and 30 mg/kg of Example 1B. […] The mRNA expression levels of two direct target genes of MEK substrate P-Erk (DUSP6 and SPRY4) and an indirect target (BMF) can be measured. […] The tumor samples were pulverized, extracted and studied for expression of the […] DUSP6 using a real time quantitative PCR.

| SMILES | AUC ([1]; iv, i.v. (0.5 mg/kg)) [µg·h/mL] | clearance ([1]; iv, i.v. (0.5 mg/kg)) [mL/h/kg] | half-life ([1]; iv, i.v. (0.5 mg/kg)) [h] | Vd ([1]; iv, i.v. (0.5 mg/kg)) [L/kg] | bioavailability [1] [%] | AUC ([1]; po, p.o. (3 mg/kg)) [µg·h/mL] | Cmax ([1]; po, p.o. (3 mg/kg)) [ng/mL] | PK-parameters compared to Example 1 [1] | IC50 (BRAF-MEK-ERK cascade) [nM] | lowering levels of DUSP-6 in tumor [2] |
| --- | --- | --- | --- | --- | --- | --- | --- | --- | --- | --- |
| O=S(=O)(Nc1c(Nc2ccc(I)cc2F)c(F)c(F)c2ccoc12)C1(C[C@H](O)CO)CC1 [Example 1A, (S)—N-(4,5-difluoro-6-((2-fluoro-4-iodophenyl)amino)benzofuran-7-yl)-1-(2,3-dihydroxypropyl)cyclopropane-1-sulfonamide] | 126 ± 3 | 4 | 19.9 ± 0.8 | 0.11 ± 0.006 | 132 | 994 ± 30 | 25600 ± 700 | improved PK-parameters compared to Example 1 | 2 ± 0.25 | significantly more effective than Example-1B |
| O=S(=O)(Nc1c(Nc2ccc(I)cc2F)c(F)c(F)c2ccoc12)C1(C[C@@H](O)CO)CC1 [Example 1B, (R)—N-(4,5-difluoro-6-((2-fluoro-4-iodophenyl)amino)benzofuran-7-yl)-1-(2,3-dihydroxypropyl)cyclopropane-1-sulfonamide] | 100 ± 14 | 5.2 | 17.1 ± 1.8 | 0.125 ± 0.006 | 126 | 752 ± 84 | 25200 ± 2700 | improved PK-parameters compared to Example 1 | 1.6 ± 0.1 | – |
| O=S(=O)(Nc1c(Nc2ccc(I)cc2F)c(F)c(F)c2ccoc12)C1(CC(O)CO)CC1 (racemic) [Example 1, 1-(2,3-Dihydroxy-propyl)-cyclopropanesulfonic acid [4,5-difluoro-6-(2-fluoro-4-iodo-phenylamino)-benzofuran-7-yl]amide] | 70 ± 9 | 7.6 | 15.6 ± 1.7 | 0.17 ± 0.006 | 87 | 365 ± 45 | 9800 ± 700 | – | 2.1 ± 0.58 | – |
